Earlier results as cited in patent publication US8207376B2, “Method for producing amino acid phosphates” (priority 2006, dated 2012).

What was measured:
[1] = as reported in JP-A-2006-182753
[2] = as reported in JP-A-2006-182753; remark: listed apart in the source
[3] = heating; known property

Compound | stimulative nature against the skin and tongue [1] | permeability through the skin and the like [2] | temperature at which it is completely degraded [3] [°C]
NCC(=O)CCC(=O)O.O=P(O)(O)O [δ-aminolevulinic acid phosphate] | low stimulative nature against the skin and tongue | excellent | –
Cl.NCC(=O)CCC(=O)O [δ-aminolevulinic acid hydrochloride] | – | – | ≥ 156
